Results taken from ChEMBL document CHEMBL2010690, “Identification and evaluation of apoptotic compounds from Garcinia oligantha” (Bioorg Med Chem Lett, 2012).
Active and inactive are the calls of the source. The calls are words filed in the database; no cut-off is given here.

Key:
Type in all cases: functional, cell-based
[1] = system: HeLa C3; experiment: Induction of apoptosis in human HeLaC3 cells assessed as caspase-3 activation at 10 uM after 72 hrs by YFP/CFP-based FRET analysis
[2] = system: HeLa C3; experiment: Induction of apoptosis in human HeLaC3 cells assessed as caspase-3 activation at 5 uM after 72 hrs by YFP/CFP-based FRET analysis
[3] = system: HeLa C3; experiment: Induction of apoptosis in human HeLaC3 cells assessed as caspase-3 activation at 2.5 uM after 72 hrs by YFP/CFP-based FRET analysis
[4] = system: HeLa C3; experiment: Induction of apoptosis in human HeLaC3 cells assessed as caspase-3 activation at 1 uM after 72 hrs by YFP/CFP-based FRET analysis
[5] = system: HeLa; experiment: Induction of apoptosis in human HeLa cells assessed as increase in PARP cleavage at 5 uM after 24 hrs by Western blotting analysis
[6] = system: HeLa; experiment: Induction of apoptosis in human HeLa cells assessed as increase in PARP cleavage at 5 uM after 48 hrs by Western blotting analysis
[7] = system: HeLa; experiment: Cytotoxicity against human HeLa cells after 72 hrs by MTT assay
[8] = system: HeLa; experiment: Induction of apoptosis in human HeLa cells assessed as increase in PARP cleavage at 10 uM after 24 hrs by Western blotting analysis
[9] = system: HeLa; experiment: Induction of apoptosis in human HeLa cells assessed as increase in PARP cleavage at 10 uM after 48 hrs by Western blotting analysis

| Compound | Activity [1] | Activity [2] | Activity [3] | Activity [4] | Activity [5] | Activity [6] | IC50 [7] [nM] | Activity [8] | Activity [9] |
| --- | --- | --- | --- | --- | --- | --- | --- | --- | --- |
| CO[C@@]12C=C3C(=O)c4c(O)cc(O)c(CC=C(C)C)c4O[C@@]34[C@@H](C1)C(C)(C)O[C@@]4(CC=C(C)C)C2=O [GAUDICHAUDIONE H] | Active | Active | Active | inactive | Active | Active | 900 |  |  |
| CC(C)=CCC1(CC=C(C)C)C(=O)C(O)=C(O)c2oc3cc4c(c(O)c3c(=O)c21)C=CC(C)(C)O4 [OLIGANTHIN A] | Active | Active | Active | inactive | Active | Active | 1580 |  |  |
| CC(C)=CCC1(O)C(=O)c2oc3cc4c(c(O)c3c(=O)c2C(CC=C(C)C)(CC=C(C)C)C1=O)C=CC(C)(C)O4 (stereo unspecified) [OLIGANTHIN B] | Active | Active | inactive | inactive |  |  | 1520 | Active | Active |
| CC(C)=CCc1c(O)cc2oc3c(c(=O)c2c1O)C(CC=C(C)C)(CC=C(C)C)C(=O)C(O)(CC=C(C)C)C3=O (stereo unspecified) [OLIGANTHIN C] | Active | inactive | inactive | inactive |  |  | 4150 |  |  |
| CC(=O)CC1(O)C(=O)c2oc3cc4c(c(O)c3c(=O)c2C(CC=C(C)C)(CC=C(C)C)C1=O)C=CC(C)(C)O4 (stereo unspecified) [OLIGANTHIN D] | Active | inactive | inactive | inactive |  |  | 7820 |  |  |
